Assays:
[1] = system: osteoclasts (osteoclastic bone resorption); experiment: Bone resorption hit screening, CTX release from osteoclasts on bovine bone slices; assay type: cell-based, human; settings: positive control, V-ATPase blocker, concentration not given
Description: Studies have determined that osteoclasts are largely derived from CD14 positive monocytes (J. Haemotol, 1999 July; 106(1):167-70). Clonal analysis of haematopoietic cells by surface phenotypes has been used to further identify osteoclast precursor by characterizing osteoclast like cells distinct from other haematopoietic progenitors (Lee et. al; 1992b Muguruma & Lee; 1988). Surface phenotype analysis has shown that human osteoclasts are derived from CD14 monocytes (Massey & Flanagan, 1999). CD 14 marker is strongly expressed on monocytes, the putative osteoclast precursor in peripheral blood and CD14 positive monocytes have been selected for osteoclastogenesis. (Clin. Sci (Lond) 2000, August, 99(2): 133-40).
The osteoclasts were isolated as CD14 positive monocytes and differentiated into osteoclasts for 10-12 days. Hereafter, the osteoclasts were lifted by trypsin, counted and seeded on bovine bone slices at a density of 40000 cells per bone slice. The osteoclasts were seeded on the bone slices for one day before the plant extracts were added. The osteoclasts were hereby allowed to attach and initiate resorption. […]
The bone resorption experiment was ended after 5 days of incubation and the cell viability was measured by the use of the AlamarBlue assay. Bone resorption was evaluated as the determination of the CTX release.

[2] = cited from earlier work

CO/C1=C\C(C)=C\[C@@H](C)[C@@H](O)[C@@H](C)C/C(C)=C/C=C/[C@H](OC)[C@@H]([C@@H](C)[C@@H](O)[C@H](C)[C@@]2(O)C[C@@H](O)[C@H](C)[C@@H](C(C)C)O2)OC1=O [Bafilomycin]
inhibition of osteoclastic bone resorption compared to DMSO [1]: approximately 80%

CC[C@H](C)[C@H](NC(=O)[C@H](CCC(=O)O)NC(=O)[C@H](CO)NC(=O)[C@@H](NC(=O)[C@@H](N)CO)C(C)C)C(=O)N[C@@H](CCC(N)=O)C(=O)N[C@@H](CC(C)C)C(=O)N[C@@H](CCSC)C(=O)N[C@@H](Cc1cnc[nH]1)C(=O)N[C@@H](CC(N)=O)C(=O)N[C@@H](CC(C)C)C(=O)NCC(=O)N[C@@H](CCCCN)C(=O)N[C@@H](Cc1cnc[nH]1)C(=O)N[C@@H](CC(C)C)C(=O)N[C@@H](CC(N)=O)C(=O)N[C@@H](CO)C(=O)N[C@@H](CCSC)C(=O)N[C@@H](CCC(=O)O)C(=O)N[C@@H](CCCN=C(N)N)C(=O)N[C@H](C(=O)N[C@@H](CCC(=O)O)C(=O)N[C@@H](Cc1c[nH]c2ccccc12)C(=O)N[C@@H](CC(C)C)C(=O)N[C@@H](CCCN=C(N)N)C(=O)N[C@@H](CCCCN)C(=O)N[C@@H](CCCCN)C(=O)N[C@@H](CC(C)C)C(=O)N[C@@H](CCC(N)=O)C(=O)N[C@@H](CC(=O)O)C(=O)N[C@H](C(=O)N[C@@H](Cc1cnc[nH]1)C(=O)N[C@@H](CC(N)=O)C(=O)N[C@@H](Cc1ccccc1)C(=O)O)C(C)C)C(C)C [teriparatide]
increase of bone mineral density in the spine ([2]; in 18 months, once daily subcutaneous injection): ≤ 13% | reduction of the risk of fracture ([2]; patients): ≤ 90%

Reference: patent US20090280196A1, “CISSUS […] PLANT EXTRACTS FOR TREATING OSTEOPOROSIS AND THE EXTRACTION PROCESS THEREOF” (priority 2006, published 2009)
